Measured values from patent publication US20120045393A1 (priority 2009, published 2012).
Non-standard residues stand in square brackets, D forms with d. Residues, ends and D or L forms follow the SMILES beside them. *: point of attachment. DOTA = O=C(O)CN1CCN(CC(=O)O)CCN(CC(=O)*)CCN(CC(=O)O)CC1; Bpa = N[C@@H](Cc1ccc(C(=O)c2ccccc2)cc1)C(=O)O; d3Pal = N[C@H](Cc1cccnc1)C(=O)O; azaGly = NNC(=O)O; Sar = CNCC(=O)O

Test system: LHRH binding sites on human ovarian cancer cells (EFO-27)
Settings: not given
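Also: Cell-associated radioactivity on confluent EFO-27 monolayers in 96-well plates, measured by microplate scintillation counting.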

| SMILES | EC50 |
| --- | --- |
| CN(CC(=O)N[C@@H](Cc1c[nH]cn1)C(=O)N[C@@H](Cc1c[nH]c2ccccc12)C(=O)N[C@@H](CO)C(=O)N[C@@H](Cc1c[nH]cn1)C(=O)N[C@H](CCCNC(=N)N)C(=O)N[C@@H](Cc1c[nH]c2ccccc12)C(=O)N[C@@H](Cc1ccccc1)C(=O)N1CCC[C@H]1C(=O)NNC(N)=O)C(=O)CN1CCN(CC(=O)O)CCN(CC(=O)O)CCN(CC(=O)O)CC1 [BRU-2730] (HELM PEPTIDE1{[O=C(O)CN1CCN(CC(=O)O)CCN(CC(=O)[*:2])CCN(CC(=O)O)CC1].[Sar].H.W.S.H.[dR].W.F.P.[O=C(NN[*:1])[*:2]].[am]}$$$$V2.0) | 12.9 µM |
| N=C(N)NCCC[C@H](NC(=O)[C@@H](Cc1ccc2ccccc2c1)NC(=O)CN1CCN(CC(=O)O)CCN(CC(=O)O)CCN(CC(=O)O)CC1)C(=O)N[C@@H](Cc1c[nH]c2ccccc12)C(=O)N[C@@H](CO)C(=O)N[C@@H](Cc1c[nH]cn1)C(=O)N[C@H](CCCNC(=N)N)C(=O)N[C@@H](Cc1c[nH]c2ccccc12)C(=O)N[C@@H](Cc1ccc(C(=O)c2ccccc2)cc1)C(=O)N1CCC[C@H]1C(=O)NCCOCCNC(=N)N [compound 2985] | 0.46 µM |
| CC(C)NCCCC[C@H](NC(=O)[C@H](Cc1c[nH]c2ccccc12)NC(=O)[C@@H](CCCNC(=N)N)NC(=O)[C@H](Cc1c[nH]cn1)NC(=O)[C@H](CO)NC(=O)[C@H](Cc1c[nH]c2ccccc12)NC(=O)[C@H](Cc1c[nH]cn1)NC(=O)CN(C)C(=O)CN1CCN(CC(=O)O)CCN(CC(=O)O)CCN(CC(=O)O)CC1)C(=O)N1CCC[C@H]1C(=O)NNC(N)=O [BRU-2675] | 12.3 µM |
| N=C(N)NCCC[C@H](NC(=O)[C@@H](Cc1ccc2ccccc2c1)NC(=O)CN1CCN(CC(=O)O)CCN(CC(=O)O)CCN(CC(=O)O)CC1)C(=O)N[C@@H](Cc1c[nH]c2ccccc12)C(=O)N[C@@H](CO)C(=O)N[C@@H](Cc1c[nH]cn1)C(=O)N[C@H](CCCNC(=N)N)C(=O)N[C@@H](Cc1c[nH]c2ccccc12)C(=O)N[C@@H](Cc1ccc(C(=O)c2ccccc2)cc1)C(=O)N1C[C@H](O)C[C@H]1C(=O)NNC(N)=O [compound 2952] | 0.28 µM |
| NCCCC[C@@H](NC(=O)[C@H](Cc1c[nH]cn1)NC(=O)[C@H](CO)NC(=O)[C@H](Cc1c[nH]c2ccccc12)NC(=O)[C@H](Cc1c[nH]cn1)NC(=O)[C@@H]1CCC(=O)N1)C(=O)N[C@@H](Cc1c[nH]c2ccccc12)C(=O)N[C@@H](Cc1ccc(O)cc1)C(=O)N1CCC[C@H]1C(=O)NNC(N)=O [BRU-2437] (HELM PEPTIDE1{[Glp].H.W.S.H.[dK].W.Y.P.[O=C(NN[*:1])[*:2]].[am]}$$$$V2.0) | 8.54 µM |
| CN(CC(=O)N[C@@H](Cc1c[nH]cn1)C(=O)N[C@@H](Cc1c[nH]c2ccccc12)C(=O)N[C@@H](CO)C(=O)N[C@@H](Cc1c[nH]cn1)C(=O)N[C@H](Cc1cccnc1)C(=O)N[C@@H](Cc1c[nH]c2ccccc12)C(=O)N[C@@H](Cc1ccc(C(=O)c2ccccc2)cc1)C(=O)N1CCC[C@H]1C(=O)NNC(N)=O)C(=O)CN1CCN(CC(=O)O)CCN(CC(=O)O)CCN(CC(=O)O)CC1 [compound 2673] ({DOTA}-[Sar]HWSH[d3Pal]W[Bpa]P[azaGly]-NH2) | 12.3 µM |
| N=C(N)NCCC[C@H](NC(=O)[C@H](N)Cc1ccc2ccccc2c1)C(=O)N[C@@H](Cc1c[nH]c2ccccc12)C(=O)N[C@@H](CO)C(=O)N[C@@H](Cc1c[nH]cn1)C(=O)N[C@H](CCCNC(=N)N)C(=O)N[C@@H](Cc1c[nH]c2ccccc12)C(=O)N[C@@H](Cc1ccc(C(=O)c2ccccc2)cc1)C(=O)N1CCC[C@H]1C(=O)NCCOCCNC(=O)CN1CCN(CC(=O)O)CCN(CC(=O)O)CCN(CC(=O)O)CC1 [BRU-2991] | ≤ 0.2 µM |

Same assay, conditions: Table 5: modifications of amino acids at positions 1 and 2; in vitro binding on EFO-27 cells

| SMILES | EC50 |
| --- | --- |
| N=C(N)NCCC[C@@H](NC(=O)[C@H](Cc1c[nH]cn1)NC(=O)[C@H](CO)NC(=O)[C@H](Cc1c[nH]c2ccccc12)NC(=O)[C@H](Cc1c[nH]cn1)NC(=O)[C@H](Cc1ccccc1)NC(=O)CN1CCN(CC(=O)O)CCN(CC(=O)O)CCN(CC(=O)O)CC1)C(=O)N[C@@H](Cc1c[nH]c2ccccc12)C(=O)N[C@@H](Cc1ccc(C(=O)c2ccccc2)cc1)C(=O)N1CCC[C@H]1C(=O)NNC(N)=O [BRU-2735] | 1.14 µM |
